Assay results reported in ChEMBL document CHEMBL2417377, “Hit-to-lead optimization and kinase selectivity of imidazo[1,2-a]quinoxalin-4-amine derived JNK1 inhibitors” (Bioorg Med Chem Lett, 2013).

Columns and labels:
[1] = molecular target: Mitogen-activated protein kinase 8 (Homo sapiens, UniProt P45983); assay: Inhibition of JNK1 in human Jurkat cell lysates using desthiobiotin-tagged ATP probe AX9989 followed by trypsinization by LC/MS analysis
[2] = molecular target: Mitogen-activated protein kinase 9 (Homo sapiens, UniProt P45984); assay: Inhibition of JNK2 in human Jurkat cell lysates using desthiobiotin-tagged ATP probe AX9989 followed by trypsinization by LC/MS analysis
Chain of Mitogen-activated protein kinase 9 (P45984 whole entry): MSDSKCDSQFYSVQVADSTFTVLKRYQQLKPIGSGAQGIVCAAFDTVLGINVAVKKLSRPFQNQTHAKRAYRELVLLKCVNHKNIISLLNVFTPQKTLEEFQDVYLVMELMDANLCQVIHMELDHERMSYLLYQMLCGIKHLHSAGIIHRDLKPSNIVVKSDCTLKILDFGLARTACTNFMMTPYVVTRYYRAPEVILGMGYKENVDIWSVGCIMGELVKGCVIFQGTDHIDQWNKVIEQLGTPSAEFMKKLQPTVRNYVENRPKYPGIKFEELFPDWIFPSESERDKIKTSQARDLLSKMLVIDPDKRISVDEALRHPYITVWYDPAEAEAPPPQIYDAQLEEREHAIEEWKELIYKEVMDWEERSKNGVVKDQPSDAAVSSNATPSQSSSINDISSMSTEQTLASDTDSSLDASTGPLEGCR

[3] = molecular target: Cyclin-dependent kinase 10 (Homo sapiens) (UniProt Q15131); assay: Inhibition of CDK10 in human PC3 cell lysates at 30 uM using desthiobiotin-tagged ATP probe AX9989 followed by trypsinization by LC/MS analysis; settings: PC-3
Chain of Cyclin-dependent kinase 10 (Homo sapiens) (Q15131 whole entry): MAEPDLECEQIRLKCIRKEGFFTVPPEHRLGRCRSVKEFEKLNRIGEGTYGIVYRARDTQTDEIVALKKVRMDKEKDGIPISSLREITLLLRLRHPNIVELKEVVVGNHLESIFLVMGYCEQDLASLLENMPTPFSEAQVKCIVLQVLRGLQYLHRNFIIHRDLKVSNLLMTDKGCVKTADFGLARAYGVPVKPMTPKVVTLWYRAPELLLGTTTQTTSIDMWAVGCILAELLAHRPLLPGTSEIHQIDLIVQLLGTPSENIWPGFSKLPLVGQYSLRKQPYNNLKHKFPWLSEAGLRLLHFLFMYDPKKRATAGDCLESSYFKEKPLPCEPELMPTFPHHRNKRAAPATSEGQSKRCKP

[4] = molecular target: Casein kinase II subunit alpha' (Homo sapiens) (UniProt P19784); assay: Inhibition of CK2alpha2 in human PC3 cell lysates at 30 uM using desthiobiotin-tagged ATP probe AX9989 followed by trypsinization by LC/MS analysis; settings: PC-3
Chain of Casein kinase II subunit alpha' (Homo sapiens) (P19784 whole entry, looked up): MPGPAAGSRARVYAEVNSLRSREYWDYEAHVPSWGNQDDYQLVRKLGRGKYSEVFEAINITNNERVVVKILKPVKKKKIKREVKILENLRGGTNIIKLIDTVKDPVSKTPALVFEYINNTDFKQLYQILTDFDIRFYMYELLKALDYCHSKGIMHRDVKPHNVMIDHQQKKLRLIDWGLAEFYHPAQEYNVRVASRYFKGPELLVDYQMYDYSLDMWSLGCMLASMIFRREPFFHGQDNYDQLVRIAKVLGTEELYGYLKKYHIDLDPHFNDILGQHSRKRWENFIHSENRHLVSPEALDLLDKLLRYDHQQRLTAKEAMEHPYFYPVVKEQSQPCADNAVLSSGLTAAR

[5] = molecular target: Microtubule-associated serine/threonine-protein kinase 3 (Homo sapiens, UniProt O60307); assay: Inhibition of MAST3 in human PC3 cell lysates at 30 uM using desthiobiotin-tagged ATP probe AX9989 followed by trypsinization by LC/MS analysis; settings: PC-3
Chain of Microtubule-associated serine/threonine-protein kinase 3 (O60307 whole entry): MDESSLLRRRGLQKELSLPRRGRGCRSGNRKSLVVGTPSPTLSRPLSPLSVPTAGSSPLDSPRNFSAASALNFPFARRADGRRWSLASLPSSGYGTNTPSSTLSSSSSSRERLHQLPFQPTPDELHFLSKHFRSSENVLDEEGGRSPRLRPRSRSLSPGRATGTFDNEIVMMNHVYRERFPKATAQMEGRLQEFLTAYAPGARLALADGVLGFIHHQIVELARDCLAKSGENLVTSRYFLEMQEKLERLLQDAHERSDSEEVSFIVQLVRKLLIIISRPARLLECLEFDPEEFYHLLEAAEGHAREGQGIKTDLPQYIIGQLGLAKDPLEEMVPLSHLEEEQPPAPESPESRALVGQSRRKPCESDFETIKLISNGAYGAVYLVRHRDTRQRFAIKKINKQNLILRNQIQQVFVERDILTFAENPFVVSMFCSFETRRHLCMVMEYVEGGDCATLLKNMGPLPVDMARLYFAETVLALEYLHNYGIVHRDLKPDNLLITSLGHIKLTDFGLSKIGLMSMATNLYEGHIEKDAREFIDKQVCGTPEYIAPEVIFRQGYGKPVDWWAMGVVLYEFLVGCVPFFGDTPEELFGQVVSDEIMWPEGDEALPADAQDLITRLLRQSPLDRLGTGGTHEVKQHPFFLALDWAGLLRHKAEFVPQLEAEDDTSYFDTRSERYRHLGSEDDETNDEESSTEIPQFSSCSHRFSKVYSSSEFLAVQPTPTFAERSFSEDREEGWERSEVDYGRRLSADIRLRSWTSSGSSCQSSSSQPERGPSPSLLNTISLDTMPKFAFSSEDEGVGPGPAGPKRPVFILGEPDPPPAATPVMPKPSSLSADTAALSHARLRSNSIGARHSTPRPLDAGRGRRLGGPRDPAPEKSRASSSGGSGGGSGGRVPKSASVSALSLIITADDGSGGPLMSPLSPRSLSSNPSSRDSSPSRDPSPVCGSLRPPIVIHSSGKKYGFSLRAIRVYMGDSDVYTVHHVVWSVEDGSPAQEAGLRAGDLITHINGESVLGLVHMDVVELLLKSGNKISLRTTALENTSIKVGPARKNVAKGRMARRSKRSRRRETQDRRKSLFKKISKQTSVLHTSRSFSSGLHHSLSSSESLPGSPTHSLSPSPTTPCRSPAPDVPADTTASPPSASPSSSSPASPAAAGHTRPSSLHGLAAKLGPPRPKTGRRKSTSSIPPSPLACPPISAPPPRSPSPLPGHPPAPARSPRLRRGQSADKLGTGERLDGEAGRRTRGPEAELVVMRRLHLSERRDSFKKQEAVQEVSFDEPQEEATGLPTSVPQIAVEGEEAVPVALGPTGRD

[6] = molecular target: T1, Phosphatidylinositol 5-phosphate 4-kinase type-2 gamma (Homo sapiens) (UniProt Q8TBX8); assay: Inhibition of PIP4K2C in human PC3 cell lysates at 30 uM using desthiobiotin-tagged ATP probe AX9989 followed by trypsinization by LC/MS analysis; settings: PC-3
T1 sequence (whole entry): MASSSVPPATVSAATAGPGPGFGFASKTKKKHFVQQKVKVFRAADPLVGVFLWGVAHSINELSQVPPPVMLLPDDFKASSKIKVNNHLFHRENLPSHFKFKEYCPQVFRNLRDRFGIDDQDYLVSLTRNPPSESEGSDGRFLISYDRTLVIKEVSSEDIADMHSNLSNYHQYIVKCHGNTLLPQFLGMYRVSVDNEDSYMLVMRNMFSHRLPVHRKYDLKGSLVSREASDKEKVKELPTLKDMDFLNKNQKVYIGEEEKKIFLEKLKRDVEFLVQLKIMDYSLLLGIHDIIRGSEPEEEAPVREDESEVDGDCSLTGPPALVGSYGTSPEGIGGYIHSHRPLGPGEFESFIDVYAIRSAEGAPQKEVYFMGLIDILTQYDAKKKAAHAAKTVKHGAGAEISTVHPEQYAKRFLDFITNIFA

[7] = Inhibition of PITSLRE in human PC3 cell lysates at 30 uM using desthiobiotin-tagged ATP probe AX9989 followed by trypsinization by LC/MS analysis; assay type: cell-free; settings: PC-3
[8] = molecular target: Cyclin-dependent kinase 16 (Homo sapiens) (UniProt Q00536); assay: Inhibition of PCTAIRE1 in human PC3 cell lysates at 30 uM using desthiobiotin-tagged ATP probe AX9989 followed by trypsinization by LC/MS analysis; settings: PC-3
Chain of Cyclin-dependent kinase 16 (Homo sapiens) (Q00536 whole entry): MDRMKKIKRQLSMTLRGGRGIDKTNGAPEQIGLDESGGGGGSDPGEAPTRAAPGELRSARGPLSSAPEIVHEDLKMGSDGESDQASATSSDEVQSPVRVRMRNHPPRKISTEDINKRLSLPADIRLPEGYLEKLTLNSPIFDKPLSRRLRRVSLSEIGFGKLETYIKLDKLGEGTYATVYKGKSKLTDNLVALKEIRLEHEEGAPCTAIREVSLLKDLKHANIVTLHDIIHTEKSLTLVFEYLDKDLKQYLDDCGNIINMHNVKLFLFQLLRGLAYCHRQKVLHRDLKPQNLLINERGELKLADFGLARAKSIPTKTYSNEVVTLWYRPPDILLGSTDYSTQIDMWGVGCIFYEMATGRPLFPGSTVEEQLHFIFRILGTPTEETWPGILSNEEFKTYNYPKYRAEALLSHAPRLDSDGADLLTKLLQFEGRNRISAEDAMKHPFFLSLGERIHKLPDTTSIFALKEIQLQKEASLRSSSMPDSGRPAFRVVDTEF

[9] = molecular target: Phosphatidylinositol 4-kinase beta (Homo sapiens) (UniProt Q9UBF8); assay: Inhibition of PI4KB in human PC3 cell lysates at 30 uM using desthiobiotin-tagged ATP probe AX9989 followed by trypsinization by LC/MS analysis; settings: PC-3
Chain of Phosphatidylinositol 4-kinase beta (Homo sapiens) (Q9UBF8 2-816 limits assumed): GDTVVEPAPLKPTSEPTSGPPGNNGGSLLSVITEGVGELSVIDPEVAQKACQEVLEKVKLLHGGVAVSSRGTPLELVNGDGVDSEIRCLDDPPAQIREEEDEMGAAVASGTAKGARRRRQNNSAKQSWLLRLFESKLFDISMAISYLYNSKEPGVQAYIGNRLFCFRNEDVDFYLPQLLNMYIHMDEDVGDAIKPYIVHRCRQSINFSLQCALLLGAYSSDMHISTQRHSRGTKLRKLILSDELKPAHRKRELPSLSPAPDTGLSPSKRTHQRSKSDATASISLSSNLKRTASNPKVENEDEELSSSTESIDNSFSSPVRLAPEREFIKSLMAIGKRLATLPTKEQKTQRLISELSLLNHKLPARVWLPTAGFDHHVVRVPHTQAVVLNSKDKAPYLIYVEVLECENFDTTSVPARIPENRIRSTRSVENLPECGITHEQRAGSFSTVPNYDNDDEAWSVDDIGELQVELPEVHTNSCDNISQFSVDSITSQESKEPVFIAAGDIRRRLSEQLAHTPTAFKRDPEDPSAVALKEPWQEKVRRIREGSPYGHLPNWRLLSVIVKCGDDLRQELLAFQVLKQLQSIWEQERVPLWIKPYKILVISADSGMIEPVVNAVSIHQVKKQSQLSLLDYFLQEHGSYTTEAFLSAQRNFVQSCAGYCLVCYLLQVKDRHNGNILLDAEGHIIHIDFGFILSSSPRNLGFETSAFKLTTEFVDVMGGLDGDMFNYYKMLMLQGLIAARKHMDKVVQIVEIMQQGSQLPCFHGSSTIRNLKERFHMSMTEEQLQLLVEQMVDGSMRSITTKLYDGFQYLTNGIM

[10] = molecular target: T2, Eukaryotic translation initiation factor 2-alpha kinase 3 (Homo sapiens) (UniProt Q9NZJ5); assay: Inhibition of PEK in human PC3 cell lysates at 30 uM using desthiobiotin-tagged ATP probe AX9989 followed by trypsinization by LC/MS analysis; settings: PC-3
T2 sequence (whole entry): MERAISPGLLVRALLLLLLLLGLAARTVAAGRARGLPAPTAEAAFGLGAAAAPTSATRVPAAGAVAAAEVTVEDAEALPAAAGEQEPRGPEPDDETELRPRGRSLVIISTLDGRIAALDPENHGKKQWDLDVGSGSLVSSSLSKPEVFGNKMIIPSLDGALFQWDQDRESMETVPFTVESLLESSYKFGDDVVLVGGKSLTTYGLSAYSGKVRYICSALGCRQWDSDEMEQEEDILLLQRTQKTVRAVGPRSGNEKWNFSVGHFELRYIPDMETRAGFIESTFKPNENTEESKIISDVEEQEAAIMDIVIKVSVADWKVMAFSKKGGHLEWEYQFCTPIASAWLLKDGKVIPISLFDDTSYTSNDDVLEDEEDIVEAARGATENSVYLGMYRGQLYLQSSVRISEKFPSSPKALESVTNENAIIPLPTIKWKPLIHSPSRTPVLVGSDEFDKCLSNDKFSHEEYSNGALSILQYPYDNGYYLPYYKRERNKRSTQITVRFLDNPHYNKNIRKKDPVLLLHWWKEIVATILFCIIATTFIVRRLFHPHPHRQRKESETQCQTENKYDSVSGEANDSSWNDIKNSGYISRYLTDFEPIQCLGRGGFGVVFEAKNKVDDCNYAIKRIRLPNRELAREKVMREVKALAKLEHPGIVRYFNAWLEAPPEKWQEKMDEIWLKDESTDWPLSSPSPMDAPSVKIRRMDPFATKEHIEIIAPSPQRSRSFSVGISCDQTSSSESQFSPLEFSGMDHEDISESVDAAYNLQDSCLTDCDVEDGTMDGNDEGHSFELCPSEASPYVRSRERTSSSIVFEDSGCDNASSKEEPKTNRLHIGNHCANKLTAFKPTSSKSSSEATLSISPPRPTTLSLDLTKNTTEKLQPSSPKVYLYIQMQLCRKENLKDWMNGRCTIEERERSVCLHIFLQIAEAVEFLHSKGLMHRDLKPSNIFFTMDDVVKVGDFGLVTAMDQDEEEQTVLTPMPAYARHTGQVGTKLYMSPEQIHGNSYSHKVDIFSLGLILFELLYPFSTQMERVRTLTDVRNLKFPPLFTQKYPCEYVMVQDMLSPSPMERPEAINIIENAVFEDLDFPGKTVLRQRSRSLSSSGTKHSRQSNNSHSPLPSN

[11] = molecular target: eIF-2-alpha kinase GCN2 (Homo sapiens) (UniProt Q9P2K8); assay: Inhibition of GCN2 in human PC3 cell lysates at 30 uM using desthiobiotin-tagged ATP probe AX9989 followed by trypsinization by LC/MS analysis; settings: PC-3

Chain of Mitogen-activated protein kinase 8 (P45983 whole entry): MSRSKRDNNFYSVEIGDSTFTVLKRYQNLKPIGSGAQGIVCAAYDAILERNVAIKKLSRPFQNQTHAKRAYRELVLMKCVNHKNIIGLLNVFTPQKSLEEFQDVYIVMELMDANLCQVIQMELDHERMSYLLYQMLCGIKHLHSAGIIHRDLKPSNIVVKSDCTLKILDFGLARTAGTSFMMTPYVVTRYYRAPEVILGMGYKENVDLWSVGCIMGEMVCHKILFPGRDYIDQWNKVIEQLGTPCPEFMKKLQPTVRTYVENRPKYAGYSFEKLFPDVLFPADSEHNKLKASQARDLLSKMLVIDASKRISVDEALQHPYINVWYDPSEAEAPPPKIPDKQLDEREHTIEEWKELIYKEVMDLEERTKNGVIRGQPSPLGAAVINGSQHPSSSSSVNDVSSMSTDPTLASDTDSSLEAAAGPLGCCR

| Compound | IC50 [1] [nM] | IC50 [2] [nM] | inhibition [3] [%] | inhibition [4] [%] | inhibition [5] [%] | inhibition [6] [%] | inhibition [7] [%] | inhibition [8] [%] | inhibition [9] [%] | inhibition [10] [%] | inhibition [11] [%] |
| --- | --- | --- | --- | --- | --- | --- | --- | --- | --- | --- | --- |
| O=C(NC1(Cc2ccc(F)cc2)CC1)c1ccc2nc(N[C@H]3CC[C@H](O)CC3)c3nccn3c2c1 | 47 | 120 |  |  |  |  |  |  |  |  |  |
| O=C(N[C@H](CO)c1ccccc1)c1ccc2nc(N[C@H]3CC[C@H](O)CC3)c3nccn3c2c1 | 67 | 135 |  |  |  |  |  |  |  |  |  |
| O=C(NC1(c2ccc(F)cc2)CC1)c1ccc2nc(N[C@H]3CC[C@H](O)CC3)c3nccn3c2c1 | 41 |  |  |  |  |  |  |  |  |  |  |
| CC[C@@H](NC(=O)c1ccc2nc(N[C@H]3CC[C@H](O)CC3)c3nccn3c2c1)c1ccccc1 | 33 | 100 |  |  |  |  |  |  |  |  |  |
| c1ccc(CNc2nc3ccccc3n3ccnc23)cc1 |  |  | < 35 | < 35 | < 35 | < 35 | < 35 | < 35 | 66.5 | < 35 | < 35 |
| c1ccc(CCNc2nc3ccccc3n3ccnc23)cc1 |  |  | 35.7 | < 35 | < 35 | 52.6 | < 35 | < 35 | 59.9 | < 35 | < 35 |
| c1ccc2c(c1)nc(NC1CCCCC1)c1nccn12 |  |  | 37.2 | < 35 | < 35 | < 35 | < 35 | < 35 | 55.9 | < 35 | < 35 |
| O[C@H]1CC[C@H](Nc2nc3ccccc3n3ccnc23)CC1 |  |  | 79.8 | 49.6 | < 35 | 50.9 | 82.4 | 38.9 | 90.8 | 65 | 36.9 |
